We go through 21 compounds from ChEMBL document CHEMBL3045042, “The discovery of SYP-10913 and SYP-11277: novel strobilurin acaricides” (Pest Manag Sci, 2011).

For data set [1], the system named is Tetranychus cinnabarinus. Put plainly: Acaricidal activity against Tetranychus cinnabarinus (carmine spider mite) in kidney bean leaf assessed as mortality at 10 mg/L measured after 72 hr of spray. It is filed as functional.
For data set [2], the system named is Tetranychus cinnabarinus. Put plainly: Acaricidal activity against Tetranychus cinnabarinus (carmine spider mite) in kidney bean leaf assessed as mortality at 40 mg/L measured after 72 hr of spray. It is filed as functional.
The subject of data set [3] is Tetranychus cinnabarinus. Put plainly: Acaricidal activity against Tetranychus cinnabarinus (carmine spider mite) in kidney bean leaf assessed as mortality at 2.5 mg/L measured after 72 hr of spray. It is filed as functional.
In data set [4] the test system is Tetranychus cinnabarinus. Put plainly: Acaricidal activity against Tetranychus cinnabarinus (carmine spider mite) in kidney bean leaf assessed as mortality at 1.25 mg/L measured after 72 hr of spray. It is filed as functional.
Data set [5] has as its system Tetranychus cinnabarinus. Put plainly: Acaricidal activity against Tetranychus cinnabarinus (carmine spider mite) in kidney bean leaf assessed as mortality at 5 mg/L measured after 72 hr of spray. It is filed as functional.
Data set [6] concerns Tetranychus cinnabarinus. Put plainly: Acaricidal activity against eggs of Tetranychus cinnabarinus (carmine spider mite) in kidney bean leaf assessed as unhatched eggs measured after 120 hr. It is filed as functional.
Data set [7] has as its system Tetranychus cinnabarinus. Put plainly: Acaricidal activity against nymphs of Tetranychus cinnabarinus (carmine spider mite) in kidney bean leaf assessed as mortality measured after 120 hr. It is filed as functional.
Another data set deals with Salmonella typhimurium. Put plainly: Genotoxicity in Salmonella enterica subsp. enterica serovar Typhimurium by Ames test. It is filed as toxicity, organism-based. For orientation: The Ames test uses bacterial strains that need an amino acid and regain growth without it when mutated back.
Data set [8] is described as follows: Acute percutaneous toxicity in Mus musculus (mouse). It is filed as organism-based. The note with it: in vivo, topical or ocular.
The species entered for data set [9] is Oryctolagus cuniculus. Put plainly: Toxicity in Oryctolagus cuniculus (rabbit) assessed as eye irritation. Particulars: in vivo. It is filed as organism-based.
Data set [10] is filed under the species Oryctolagus cuniculus. Put plainly: Toxicity in Oryctolagus cuniculus (rabbit) assessed as skin irritation. It is filed as organism-based. The note with it: in vivo.
Data set [11] can be described thus: Acute oral toxicity in Mus musculus (mouse). Type of data set: organism-based. Particulars: in vivo.

Converted amounts (≈) assume the structure as drawn.

On to `CO/C=C(/C(=O)OC)c1ccccc1COc1cc(C(F)(F)F)nc(Nc2ccc(C)cc2C)n1`, for which the mortality (as a rule, the percentage killed) at 10 µg/mL in the data set with Tetranychus cinnabarinus [1] is 76%. Also, the mortality at 40 µg/mL with Tetranychus cinnabarinus [2] came to 100%.
The corresponding values for `CO/C=C(/C(=O)OC)c1ccccc1COc1cc(C(F)(F)F)nc(Nc2ccc(C)c(C)c2)n1` are 20% and 97%.
The like results for `CO/C=C(/C(=O)OC)c1ccccc1COc1cc(C(F)(F)F)nc(Nc2cc(Cl)ccc2Cl)n1` were, in that order, 20% and 100%.
The corresponding values for `CO/C=C(/C(=O)OC)c1ccccc1COc1cc(C(F)(F)F)nc(Nc2ccccc2C)n1` are 0% and 100%.
`CO/C=C(/C(=O)OC)c1ccccc1COc1cc(C(F)(F)F)nc(Nc2ccc(Cl)c(C)c2Cl)n1`: the mortality at 10 µg/mL in the data set on Tetranychus cinnabarinus [1] was determined as 100%. Further, in the data set with Tetranychus cinnabarinus [3], the mortality at 2.5 µg/mL is 92%. In addition, the mortality at 1.25 µg/mL in the data set on Tetranychus cinnabarinus [4] worked out at 79%. The mortality at 5 µg/mL with Tetranychus cinnabarinus [5] was 100%. Also, in the data set with Tetranychus cinnabarinus [2], the mortality at 40 µg/mL is 100%.
As for `CO/C=C(/C(=O)OC)c1ccccc1COc1cc(C(F)(F)F)nc(Nc2cc(Cl)cc(Cl)c2)n1`, the mortality at 10 µg/mL in the data set with Tetranychus cinnabarinus [1] was 0%. In addition, in the data set on Tetranychus cinnabarinus [2], the mortality at 40 µg/mL amounted to 0%.
In the case of `CO/C=C(/C(=O)OC)c1ccccc1COc1cc(C(F)(F)F)nc(Nc2ccc(Cl)c(Cl)c2)n1`, the mortality at 10 µg/mL in the data set on Tetranychus cinnabarinus [1] was 0%. Moreover, the mortality at 40 µg/mL in the data set on Tetranychus cinnabarinus [2] was found to be 73%.
On to `CO/C=C(/C(=O)OC)c1ccccc1COc1cc(C(F)(F)F)nc(Nc2ccc(Cl)c(Cl)c2Cl)n1`, for which the mortality at 10 µg/mL with Tetranychus cinnabarinus [1] is 100%. Besides, the mortality at 2.5 µg/mL in the data set on Tetranychus cinnabarinus [3] was 98%. Further, the mortality at 1.25 µg/mL in the data set on Tetranychus cinnabarinus [4] came out at 75%. For the same compound, the mortality at 5 µg/mL in the data set with Tetranychus cinnabarinus [5] was 100%. Besides, the mortality at 40 µg/mL in the data set on Tetranychus cinnabarinus [2] came out at 100%.
Turning to `CO/C=C(/C(=O)OC)c1ccccc1COc1cc(C(F)(F)F)nc(Nc2cc(Cl)c(Cl)cc2Cl)n1`, the mortality at 10 µg/mL in the data set with Tetranychus cinnabarinus [1] came to 0%. For the same compound, in the data set on Tetranychus cinnabarinus [2], the mortality at 40 µg/mL came out at 0%.
Turning to `CO/C=C(/C(=O)OC)c1ccccc1COc1cc(C(F)(F)F)nc(Nc2ccc(Cl)cc2C)n1`, in the data set on Tetranychus cinnabarinus [1], the mortality at 10 µg/mL is 0%. For the same compound, the mortality at 40 µg/mL with Tetranychus cinnabarinus [2] came to 0%.
For the compound `CO/C=C(/C(=O)OC)c1ccccc1COc1cc(C(F)(F)F)nc(Nc2ccc(Cl)cc2)n1`, the mortality at 10 µg/mL in the data set on Tetranychus cinnabarinus [1] amounted to 0%. Further, the mortality at 40 µg/mL with Tetranychus cinnabarinus [2] is 0%.
For `CO/C=C(/C(=O)OC)c1ccccc1COc1cc(C(F)(F)F)nc(Nc2cccc(C)c2)n1`, the mortality at 10 µg/mL in the data set with Tetranychus cinnabarinus [1] worked out at 20%. Besides, the mortality at 40 µg/mL with Tetranychus cinnabarinus [2] amounted to 90%.
The like results for `CO/C=C(/C(=O)OC)c1ccccc1COc1cc(C(F)(F)F)nc(Nc2ccc(C(F)(F)F)cc2)n1` were, in that order, 0% and 0%.
In the case of `CO/C=C(/C(=O)OC)c1ccccc1COc1cc(C(F)(F)F)nc(Nc2ccc(Cl)cc2Cl)n1` [SYP-11277], the mortality at 10 µg/mL in the data set with Tetranychus cinnabarinus [1] is 100%. In addition, the LC50 (commonly the concentration lethal to half of the exposed cells or organisms) in the data set with Tetranychus cinnabarinus [6] amounted to 3.63 µg/mL (≈ 6.87 µM); with Tetranychus cinnabarinus [7] it was 0.37 µg/mL (≈ 0.7 µM). In the data set on Tetranychus cinnabarinus [3], the mortality at 2.5 µg/mL is 98%. Also, the mortality at 1.25 µg/mL in the data set on Tetranychus cinnabarinus [4] came out at 90%. The mortality at 5 µg/mL with Tetranychus cinnabarinus [5] was found to be 100%. Moreover, the mortality at 40 µg/mL in the data set on Tetranychus cinnabarinus [2] turned out to be 100%.
Turning to `CO/C=C(/C(=O)OC)c1ccccc1COc1cc(C(F)(F)F)nc(Nc2cccc(Cl)c2Cl)n1`, the mortality at 10 µg/mL with Tetranychus cinnabarinus [1] was 100%. The Activity entry is on record as “Non-toxic” in the data set with Salmonella typhimurium, “Toxic” in the data set filed under Oryctolagus cuniculus [9] and “Non-toxic” in the data set filed under Oryctolagus cuniculus [10]. In addition, the LD50 – broadly, the dose expected to kill half of the subjects tested – in data set [8] is not below 2150 mg/kg; in [11], not below 4640 mg/kg. Besides, the LC50 with Tetranychus cinnabarinus [6] turned out to be 4.75 µg/mL (≈ 8.99 µM); in the data set with Tetranychus cinnabarinus [7] it was 0.34 µg/mL (≈ 0.644 µM). The mortality at 2.5 µg/mL in the data set with Tetranychus cinnabarinus [3] stood at 95%. In addition, the mortality at 1.25 µg/mL in the data set on Tetranychus cinnabarinus [4] is 75%. In addition, in the data set on Tetranychus cinnabarinus [5], the mortality at 5 µg/mL is 99%. Besides, the mortality at 40 µg/mL with Tetranychus cinnabarinus [2] was 100%.
Consider `CO/C=C(/C(=O)OC)c1ccccc1COc1cc(C(F)(F)F)nc(Nc2cc(C)ccc2C)n1`, for which the mortality at 10 µg/mL with Tetranychus cinnabarinus [1] came to 0%. Moreover, in the data set with Tetranychus cinnabarinus [2], the mortality at 40 µg/mL was 0%.
As for `CO/C=C(/C(=O)OC)c1ccccc1COc1cc(C(F)(F)F)nc(Nc2ccc(OC)cc2)n1`, in the data set with Tetranychus cinnabarinus [1], the mortality at 10 µg/mL turned out to be 0%. In the data set with Tetranychus cinnabarinus [2], the mortality at 40 µg/mL amounted to 0%.
On to `CO/C=C(/C(=O)OC)c1ccccc1COc1cc(C(F)(F)F)nc(Nc2ccc(C)cc2)n1`, for which the mortality at 10 µg/mL in the data set on Tetranychus cinnabarinus [1] is 0%. For the same compound, the mortality at 40 µg/mL in the data set with Tetranychus cinnabarinus [2] turned out to be 0%.
Take `CO/C=C(/C(=O)OC)c1ccccc1COc1cc(C(F)(F)F)nc(Nc2c(Cl)cccc2Cl)n1`: the mortality at 10 µg/mL in the data set on Tetranychus cinnabarinus [1] came to 0%. The mortality at 40 µg/mL with Tetranychus cinnabarinus [2] worked out at 0%.
Take `CO/C=C(/C(=O)OC)c1ccccc1COc1cc(C(F)(F)F)nc(OC(C)C)n1` [FLUACRYPYRIM]: in the data set with Tetranychus cinnabarinus [1], the mortality at 10 µg/mL is 95%. The LC50 in the data set with Tetranychus cinnabarinus [6] worked out at 5.95 µg/mL (≈ 14 µM); in the data set on Tetranychus cinnabarinus [7] it was 0.64 µg/mL (≈ 1.5 µM). The mortality at 2.5 µg/mL in the data set with Tetranychus cinnabarinus [3] stood at 65%. Also, the mortality at 1.25 µg/mL in the data set with Tetranychus cinnabarinus [4] worked out at 30%. The mortality at 5 µg/mL with Tetranychus cinnabarinus [5] stood at 94%. In the data set on Tetranychus cinnabarinus [2], the mortality at 40 µg/mL stood at 100%.
Regarding `CO/C=C(/C(=O)OC)c1ccccc1COc1cc(C(F)(F)F)nc(Nc2cccc(Cl)c2C)n1`, the mortality at 10 µg/mL in the data set on Tetranychus cinnabarinus [1] turned out to be 0%. In addition, the mortality at 40 µg/mL with Tetranychus cinnabarinus [2] worked out at 0%.
